Tests used:
[1] = target: T1, B-Raf kinase (SEQ ID NO: 1) (Homo sapiens, UniProt P15056); test: Biochemical assay for B-Raf (coupled pyruvate kinase/lactate dehydrogenase); details: 1 mM ATP; read-out: BRAF (inhibition of biochemical activity, IC50)
T1 construct: GST (N); purchased Sigma

[2] = target: T2, C-Raf kinase (SEQ ID NO: 2) (Homo sapiens, UniProt P04049, Y340D/Y341D); test: Biochemical assay for C-Raf (coupled pyruvate kinase/lactate dehydrogenase); details: 1 mM ATP; read-out: CRAF (inhibition of biochemical activity, IC50)
T2 construct: C-Raf residues 306-end; Y340D, Y341D with N-; GST (N); purchased Sigma
T2 sequence (P04049 307-648 Y340D/Y341D): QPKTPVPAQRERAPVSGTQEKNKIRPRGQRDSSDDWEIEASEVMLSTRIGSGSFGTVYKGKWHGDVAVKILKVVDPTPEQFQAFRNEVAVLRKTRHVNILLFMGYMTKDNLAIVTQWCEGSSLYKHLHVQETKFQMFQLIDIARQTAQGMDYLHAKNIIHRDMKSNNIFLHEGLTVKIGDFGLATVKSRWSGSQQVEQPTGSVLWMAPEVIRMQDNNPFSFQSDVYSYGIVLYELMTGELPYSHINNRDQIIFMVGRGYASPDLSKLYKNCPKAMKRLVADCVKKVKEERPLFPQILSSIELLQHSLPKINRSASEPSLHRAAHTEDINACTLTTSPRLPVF

MiaPaca-2 cells = test: MiaPaca-2 cell proliferation assay; assay type: cell-based; details: Homo sapiens, MIA PaCa-2; 67-72 h incubation, resazurin; read-out: MiaPaca-2 (inhibition of cell proliferation, IC50)
Procedure: Miapaca-2 cells (catalog #CRL-1420) are obtained from the American Type Culture Collect (ATTC, Manassas, VA). Briefly, cells were grown in DMEM supplemented with 10% characterized fetal bovine serum (Invitrogen, Carlsbad, CA), 2.5% New Zealand sourced horse serum and 1% Penicillin/Streptomycin/L-Glutamine at 37° C., 5% CO2, and 95% humidity. Cells are expanded until reaching 70-95% confluency at which point they are sub-cultured or harvested for assay use. A serial dilution of test compound is dispensed into a 384-well black clear bottom plate in triplicate. Seven hundred fifty cells are added per well in 50 μL complete growth medium in the 384-well plate. Plates are incubated for 67-72 h at 37° C., 5% CO2, and 95% humidity. At the end of the incubation, 10 μL of a 440 μM solution of resazurin (Sigma, St. Louis, MO) in PBS is added to each well of the plate and plates are incubated for an additional 5-6 h at 37° C., 5% CO2, and 95% humidity. Plates are read on a Synergy2 or equivalent reader (Biotek, Winooski VT) using an excitation of 540 nm and an emission of 600 nm. Data is analyzed using Prism software (GraphPad, San Diego, CA) to calculate IC50 values.

HCT-116 cells = test: HCT-116 cell proliferation assay; assay type: cell-based; details: Homo sapiens, HCT-116; 67 to 72 h incubation, resazurin; read-out: HCT-116 (inhibition of cell proliferation, IC50)
Procedure: HCT-116 cells (catalog #CCL-247) are obtained from the American Type Culture Collect (ATCC, Manassas, VA). Briefly, cells are grown in McCoy's 5A supplemented with 10% characterized fetal bovine serum (Invitrogen, Carlsbad, CA) and 1% Penicillin/Streptomycin/L-Glutamine at 37° C., 5% CO2, and 95% humidity. Cells are expanded until reaching 70-95% confluency at which point they are sub-cultured or harvested for assay use. A serial dilution of test compound is dispensed into a 384-well black clear bottom plate in triplicate. 375 cells are added per well in 50 μL complete growth medium in the 384-well plate. Plates are incubated for 67 to 72 h at 37° C., 5% CO2, and 95% humidity. At the end of the incubation, 40 μL of a […] solution of resazurin (Sigma, St. Louis, MO) in PBS is added to each well of the plate and plates are incubated for an additional 4 to 5 h at 37° C., 5% CO2, and 95% humidity. Plates are read on a Synergy2 or equivalent reader (Biotek, Winooski, VT) using an excitation of 540 nm and an emission of 600 nm. Data is analyzed using Prism software (Graphpad, San Diego, CA) to calculate IC50 values.

HPAF-II cells = test: HPAF-II cell proliferation assay; assay type: cell-based; details: Homo sapiens, HPAF-II; 115 to 120 h incubation, resazurin; read-out: HPAF-II (inhibition of cell proliferation, IC50)
Procedure: (§1) HPAF-II cells (catalog #CRL-1997) are obtained from the American Type Culture Collect (ATCC, Manassas, VA). Briefly, cells are grown in Minimum Essential Media supplemented with 10% characterized fetal bovine serum (Invitrogen, Carlsbad, CA) and 1% Penicillin/Streptomycin/L-Glutamine at 37° C., 5% CO2, and 95% humidity. Cells are expanded until reaching 70-95% confluency at which point they are sub-cultured or harvested for assay use. A serial dilution of test compound is dispensed into a 384-well black clear bottom plate in triplicate. 750 cells are added per well in 50 μL complete growth medium in the 384-well plate. Plates are incubated for 115 to 120 h at 37° C., 5% CO2, and 95% humidity. At the end of the incubation, 40 μL of a […] solution of resazurin (Sigma, St. Louis, MO) in PBS is added to each well of the plate and plates are incubated for an additional 18 to 24 h at 37° C., 5% CO2, and 95% humidity. Plates are read on a Synergy2 or equivalent reader (Biotek, Winooski, VT) using an excitation of 540 nm and an emission of 600 nm. Data is analyzed using Prism software (Graphpad, San Diego, CA) to calculate IC50 values.

Pa16c cells = test: Pa16c cell proliferation assay; assay type: cell-based; details: 67 to 72 h incubation, resazurin; read-out: Pa16c (inhibition of cell proliferation, IC50)
Procedure: as §1, with “Pa16c” for “HPAF-II”, “cells” for “cells (catalog #CRL-1997)”, “Dr. Channing Der, University of North Carolina at Chapel Hill.” for “the American Type Culture Collect (ATCC, Manassas, VA).”, “Dulbecco's Modified Eagle Medium” for “Minimum Essential Media”, “67” for “115”, “72” for “120”

T1 sequence (P15056 416-766): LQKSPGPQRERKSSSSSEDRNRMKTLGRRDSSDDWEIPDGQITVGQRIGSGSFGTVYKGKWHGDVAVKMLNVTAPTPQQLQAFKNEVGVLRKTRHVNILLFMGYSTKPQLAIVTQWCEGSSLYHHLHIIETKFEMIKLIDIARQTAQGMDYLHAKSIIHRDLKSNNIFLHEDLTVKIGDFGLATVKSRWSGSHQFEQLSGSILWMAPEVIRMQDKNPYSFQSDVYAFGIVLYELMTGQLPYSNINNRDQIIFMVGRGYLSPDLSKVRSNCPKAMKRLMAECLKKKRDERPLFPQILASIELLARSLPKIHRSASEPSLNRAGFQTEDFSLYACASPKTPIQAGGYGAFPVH

Structure (SMILES)	IC50 [1] [µM]	IC50 [2] [µM]	IC50 (MiaPaca-2 cells) [µM]	IC50 (HCT-116 cells) [µM]	IC50 (HPAF-II cells) [µM]	IC50 (Pa16c cells) [µM]
Cc1cc(-c2cc(NC(=O)c3cc(C4CCC4)cnn3)ccc2C)cc(N2CCOCC2)n1 [Example 42]	< 0.1	< 0.1	0.1 to 0.5	0.1 to 0.5	0.1 to 0.5	0.1 to 0.5
Cc1ccc(NC(=O)c2cc(C(F)(F)F)cnn2)cc1-c1nc(OCCO)cc(N2CCOCC2)n1 [Example 43]	1 to 10	1 to 10	< 0.1	0.1 to 0.5	< 0.1	0.1 to 0.5
Cc1ccc(NC(=O)c2cc(C3CC3)cnn2)cc1-c1nc(N[C@H](C)CO)cc(N2CCOCC2)n1 [Example 45]	1 to 10	0.5 to 1	0.5 to 1	0.5 to 1	0.5 to 1	1 to 10
Cc1ccc(NC(=O)c2cc(C3CC3)cnn2)cc1-c1cccc(N2CCOCC2)c1 [Example 46]	0.1 to 0.5	< 0.1	0.5 to 1	0.1 to 0.5	0.1 to 0.5	0.1 to 0.5
Cc1ccc(NC(=O)c2cncc(C(F)(F)F)c2)cc1-c1cc(OCCO)nc(N2CCOCC2)c1 [Example 47]	< 0.1	< 0.1	0.5 to 1	0.1 to 0.5	0.5 to 1	1 to 10
Cc1ccc(NC(=O)c2cc(C3CCC3)cnn2)cc1-c1cc(OCCO)nc(N2CCOCC2)c1 [Example 50]	< 0.1	< 0.1	< 0.1	< 0.1	< 0.1	< 0.1
Cc1ccc(NC(=O)c2cc(Cl)cnn2)cc1-c1ccnc(N2CCOCC2)c1 [Example 51]	1 to 10	0.5 to 1	1 to 10	0.5 to 1	0.5 to 1	1 to 10
Cc1ccc(NC(=O)c2cc(C3CC3)cnn2)cc1-c1nccc(N2CCOCC2)n1 [Example 52]	1 to 10	1 to 10	1 to 10	1 to 10	1 to 10	1 to 10
C=C(C)c1cncc(C(=O)Nc2ccc(C)c(-c3cc(N[C@H](C)CO)nc(N4CCOCC4)c3)c2)n1 [Example 53]	< 0.1	< 0.1	1 to 10	1 to 10	1 to 10	1 to 10
Cc1ccc(NC(=O)c2cnc(C(C)C)nc2)cc1-c1cc(N[C@H](C)CO)nc(N2CCOCC2)c1 [Example 54]	0.1 to 0.5	< 0.1	1 to 10	1 to 10	1 to 10	1 to 10
Cc1ccc(NC(=O)c2cc(C3CC3)cnn2)cc1-c1cncc(N2CCOCC2)n1 [Example 55]	1 to 10	0.5 to 1	1 to 10	1 to 10	1 to 10	1 to 10

Source: patent US20250206729A1, “DUAL RAF AND TUBULIN INHIBITORS AND METHODS OF USE THEREOF” (Deciphera Pharmaceuticals, LLC, priority 2023, published 2025)
